{"source": "patent US8513229B2", "about": "“4-Azetidinyl-1-phenyl-cyclohexane antagonists of CCR2” (Janssen Pharmaceutica NV, priority 2009, dated 2013)"}
{"molecular_target": "T1, CCR2 (Homo sapiens, UniProt P41597)", "T1 construct": "host or cells: THP-1 human monocytic cells", "T1 sequence (P41597 1-360 isoform P41597-2)": "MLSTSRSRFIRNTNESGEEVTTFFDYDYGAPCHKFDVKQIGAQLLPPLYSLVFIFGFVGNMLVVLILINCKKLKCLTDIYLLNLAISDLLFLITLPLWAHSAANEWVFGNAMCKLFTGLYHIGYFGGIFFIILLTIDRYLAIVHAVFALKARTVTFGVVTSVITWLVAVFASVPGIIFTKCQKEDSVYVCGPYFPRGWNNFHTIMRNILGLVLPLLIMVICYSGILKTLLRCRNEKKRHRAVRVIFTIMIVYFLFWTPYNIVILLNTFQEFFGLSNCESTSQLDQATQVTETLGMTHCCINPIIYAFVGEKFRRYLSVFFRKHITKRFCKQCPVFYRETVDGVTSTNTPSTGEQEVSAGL", "experiment": "MCP-1 Receptor Binding Assay in THP-1 Cells", "conditions": "0.5 nM 125I labeled MCP-1, 2 hours at 30° C., read-out: Inhibition of MCP-1 Binding IC50 CCR2 Binding", "description": "MCP-1 Receptor Binding Assay in THP-1 Cells\nHuman monocytic cell line THP-1 cells were obtained from American Type Culture Collection (Manassas, Va., USA). […] The cell density was maintained […].\n1 μM cold MCP-1 was used for nonspecific binding.", "units": {"IC50": "nM"}}
{"compound": "CN(C)c1ccc(C(F)(F)F)cc1C(=O)NCC(=O)NC1CN(C2CCC(c3ccccc3)CC2)C1", "note": "(stereo not shown) [Example 69, 2-Dimethylamino-N-{[1-(4-phenyl-cyclohexyl)-azetidin-3-ylcarbamoyl]-methyl}-5-trifluoromethyl-benzamide]", "IC50": 240}
{"compound": "O=C(CNC(=O)c1cc(C(F)(F)F)ccc1N1CCCC1)NC1CN(C2CCC(c3ccccc3)CC2)C1", "note": "(stereo not shown) [Example 70, N-{[1-(4-Phenyl-cyclohexyl)-azetidin-3-ylcarbamoyl]-methyl}-2-pyrrolidin-1-yl-5-trifluoromethyl-benzamide]", "IC50": 1700}
{"compound": "O=C(CNC(=O)c1ccc(NCCO)c(C(F)(F)F)c1)NC1CN(C2CCC(c3ccccc3)CC2)C1", "note": "(stereo not shown) [Example 72, 4-(2-Hydroxy-ethylamino)-N-{[1-(4-phenyl-cyclohexyl)-azetidin-3-ylcarbamoyl]-methyl}-3-trifluoromethyl-benzamide]", "IC50": 400}
{"compound": "O=C(CNC(=O)c1ccc([N+](=O)[O-])c(C(F)(F)F)c1)NC1CN(C2CCC(c3ccccc3)CC2)C1", "note": "(stereo not shown) [Example 73, 4-Nitro-N-{[1-(4-phenyl-cyclohexyl)-azetidin-3-ylcarbamoyl]-methyl}-3-trifluoromethyl-benzamide]", "IC50": 490}
{"compound": "Nc1ccc(C(=O)NCC(=O)NC2CN(C3CCC(c4ccccc4)CC3)C2)cc1C(F)(F)F", "note": "(stereo not shown) [Example 74, 4-Amino-N-{[1-(4-phenyl-cyclohexyl)-azetidin-3-ylcarbamoyl]-methyl}-3-trifluoromethyl-benzamide]", "IC50": 46}
{"compound": "O=C(CNC(=O)c1cc(Br)cc(C(F)(F)F)c1)NC1CN(C2CCC(c3ccccc3)CC2)C1", "note": "(stereo not shown) [Example 77, 3-Bromo-N-{[1-(4-phenyl-cyclohexyl)-azetidin-3-ylcarbamoyl]-methyl}-5-trifluoromethyl-benzamide]", "IC50": 380}
{"compound": "O=C(CNC(=O)c1cc([N+](=O)[O-])cc(C(F)(F)F)c1)NC1CN(C2CCC(c3ccccc3)CC2)C1", "note": "(stereo not shown) [Example 78, 3-Nitro-N-{[1-(4-phenyl-cyclohexyl)-azetidin-3-ylcarbamoyl]-methyl}-5-trifluoromethyl-benzamide]", "IC50": 1000}
{"compound": "Nc1cc(C(=O)NCC(=O)NC2CN(C3CCC(c4ccccc4)CC3)C2)cc(C(F)(F)F)c1", "note": "(stereo not shown) [Example 79, 3-Amino-N-{[1-(4-phenyl-cyclohexyl)-azetidin-3-ylcarbamoyl]-methyl}-5-trifluoromethyl-benzamide]", "IC50": 23}
{"compound": "CS(=O)(=O)N(c1cc(C(=O)NCC(=O)NC2CN(C3CCC(c4ccccc4)CC3)C2)cc(C(F)(F)F)c1)S(C)(=O)=O", "note": "(stereo not shown) [Example 80, 3-Bis methanesulfonyl-N-{[1-(4-phenyl-cyclohexyl)-azetidin-3-ylcarbamoyl]-methyl}-5-trifluoromethyl-benzamide]", "IC50": 420}
{"compound": "O=C(CNC(=O)c1cc(O)cc(C(F)(F)F)c1)NC1CN(C2CCC(c3ccccc3)CC2)C1", "note": "(stereo not shown) [Example 81, 3-Hydroxy-N-{[1-(4-phenyl-cyclohexyl)-azetidin-3-ylcarbamoyl]-methyl}-5-trifluoromethyl-benzamide]", "IC50": 11000}
{"compound": "CC(C)(C)NC(=O)Nc1cc(C(=O)NCC(=O)NC2CN(C3CCC(c4ccccc4)CC3)C2)cc(C(F)(F)F)c1", "note": "(stereo not shown) [Example 82, 3-(3-tert-Butyl-ureido)-N-{[1-(4-phenyl-cyclohexyl)-azetidin-3-ylcarbamoyl]-methyl}-5-trifluoromethyl-benzamide]", "IC50": 50}
{"compound": "COc1ccc(C2(N)CCC(N3CC(NC(=O)CNC(=O)c4cccc(C(F)(F)F)c4)C3)CC2)cc1", "note": "(stereo not shown) [Example 86, N-({1-[4-Amino-4-(4-methoxy-phenyl)-cyclohexyl]-azetidin-3-ylcarbamoyl}-methyl)-3-trifluoromethyl-benzamide]", "IC50": 320}
{"compound": "N-({1-[4-(4,4-bis-Methanesulfonylamino-phenyl)-cyclohexyl]-azetidin-3-ylcarbamoyl}-methyl)-3-trifluoromethyl-benzamide [Example 17]", "IC50": 27}
